Values joined by “and” are separate entries in the source; they are usually repeats but may differ in a detail not shown here. Equal values may be shown once. Positions of bridges follow the written chain, without caps; N, C: chain ends. Non-standard residues stand in square brackets, D forms with d. Residues, ends and D or L forms follow the SMILES beside them. Chains are numbered I, II in the order given.
What was measured:
PC3 cells [1] = settings: 48 h
Protocol: 20,000 PC3 cells were plated overnight in 96 well plates (Costar) at a concentration of 200,000 cells/ml. They are treated with the peptides, doxorubicin, docetaxel alone, or in combination for different time period incubation and the cell viability was determined by MTT assay as described. The percentage survival of the cells with different treatments was calculated using DMSO-vehicle control-treated cells as the standard.

LnCAP cells = assay type: cell-based; settings: 48 h
PC3 cells [2] = test: Live/Dead assay by flow cytometry, PC3; assay type: cell-based; settings: ± standard error, at least 4 replicates
Protocol: PC3 or HeLa cells were seeded at 400,000 or 500,000 cells per well respectively in 6-well tissue culture plates (BD Falcon) and allowed to attach overnight at 37°C with 5% CO2. The cells were incubated with different concentrations of d-wrwycr for 24 or 48 h respectively before the cells were lifted off from the plate. Cell pellets were resuspended in 200 µl of dye […] protocol (Live/dead cytotoxicity kit for mammalian cells, Invitrogen and reference). Data were collected in BDFacs Canto and analyzed using FACSDiva software (Becton-Dickenson).

HeLa cells = test: Live/Dead assay by flow cytometry, HeLa; assay type: cell-based; settings: ± standard error, at least 4 replicates
Protocol: PC3 or HeLa cells were seeded at 400,000 or 500,000 cells per well respectively in 6-well tissue culture plates (BD Falcon) and allowed to attach overnight at 37°C with 5% CO2. The cells were incubated with different concentrations of d-wrwycr for 24 or 48 h respectively before the cells were lifted off from the plate. Cell pellets were resuspended in 200 µl of dye solution containing either cell-permeable calcein AM and/or cell-impermeant ethidium homodimer according to the manufacturer's protocol (Live/dead cytotoxicity kit for mammalian cells, Invitrogen and reference). Data were collected in BDFacs Canto and analyzed using FACSDiva software (Becton-Dickenson).

γH2AX in PC3 cells = test: γH2AX foci by microscopy and flow cytometry; assay type: cell-based; settings: PC3, 200 µM, flow cytometry
Protocol: DAPI (5 μg/ml) was used to stain the nucleus. The stained cells on the coverslips were mounted on the glass slides and observed with a Zeiss inverted microscope with AxioVision 4.8 software and using the 100× magnification. Foci of 53BP1 were counted manually and the average number of foci per cell was calculated. […] They were subsequently treated with either 50-200 μM […] or 50-100 μM […] or 0.5-1 μM doxorubicin or combination treatment for 0, 12, 24, 36 and 48 h. […] Samples were analyzed using a Becton Dickinson FACS Canto flow cytometer at a forward scatter voltage of 25 V, side-scatter voltage of 400 V, and FITC channel at a voltage of 400 V.

PC3 cells [3] = test: Cell cycle analysis (PI, flow cytometry); assay type: cell-based; settings: PC3, 200 µM, 48 h or 72 h, 2 independent experiments; DMSO 14%
Protocol: 600,000 PC3 cells were plated in 60-mm dishes at a concentration of 200,000 cells/ml and allowed to attach before they were serum-starved for 48 h by adding RPMI with no supplemented FBS. The cells were then treated in 100, 150 or 200 µM wrwycr in RPMI supplemented with 10% FBS for either 48 h or 72 h followed by permeabilization with cold 70% ethanol overnight. RNase/PI solution (BD Pharmingen) were added to the cells following the protocol in [33] and incubated for 2.5 h at 37°C and analyzed using the PerCP-Cy5-5 channel in a FACS Canto flow cytometer. The results were analyzed using Flow-Jo software.

Chk2 in PC3 cells = test: Phospho-Chk2 by flow cytometry; assay type: cell-based; settings: PC3, 50 µM wrwycr on its own, 48 h
Protocol: They were subsequently treated with either 50-200 μM […] or 50-100 μM […] or 0.5-1 μM doxorubicin or combination treatment for 0, 12, 24, 36 and 48 h. […] Samples were analyzed using a Becton Dickinson FACS Canto flow cytometer at a forward scatter voltage of 25 V, side-scatter voltage of 400 V, and FITC channel at a voltage of 400 V.

[4] = system: GRP78 promoter in HeLa cells; test: Luciferase reporter assay for ER stress; assay type: cell-based; settings: 24 h
Protocol: HeLa cells were transfected with either either 15 µg of plasmid DJT208, carrying the GRP78 promoter (pGRP78) driving the ER-stress response elements ERSE 1, ERSE 2 and ERSE 3 upstream of the luciferase gene, or 15 µg of the plasmid GL2P, carrying the luciferase gene driven by the SV40 promoter (pSV40). All cells were also co-transfected with 10 µg of the PB1 plasmid, carrying the β-galactosidase reporter transcribed by the SV40 promoter, as a transfection control. [The plasmids were generous gifts from Dr. Peter Belmont from Christopher Glembotski's Lab in SDSU]. After 24 h the cells were treated with increasing concentrations of wrwycr (100, 150 and 200 µM) for 24 h and the luciferase activity was measured using an OptocompII Luminometer. Tunicamycin (TM), a known inducer of ER stress, was used as a positive control for the experiment ER stress was calculated as the fold increase of luciferase gene expression from the GRP78 promoter over that from the SV40 promoter of pGL2P for the different concentrations of the peptide over DMSO, which is the solvent for the peptide, or over the media in the case of TM.

[5] = system: U2OS cell lines vs IMR 90 cells; settings: cited from earlier work
Excerpt: A major challenge of cancer treatment is drug delivery. The intact cell membrane protects the cellular components from its surroundings, restricting hydrophilic molecules from entering the cell and allowing only small molecules to cross the membrane. The presence of hydrophobic and basic amino acid residues in peptide wrwycr probably helps it cross the cancer cell membrane more efficiently than normal cells, similar to the cell penetrating peptides (CPPs).

[6] = system: Holliday junctions vs replication forks; settings: in vitro; ref [20], [22], [26]; cited from earlier work
Excerpt: Our laboratory previously identified peptides and small molecules that bind to Holliday junctions and replication fork mimics, branched DNA structures that are intermediates in DNA repair [18]–[23]. […] In addition to binding HJs in vitro, peptide wrwycr also binds Holliday junctions in vivo [24] and is synergistically toxic with DNA-damaging agents including mitomycin C, UV, H2O2, and topoisomerase inhibitors in bacteria ([25]; Naili, ...

In the case of `N=C(N)NCCC[C@@H](NC(=O)[C@@H](CSSC[C@@H](NC(=O)[C@@H](Cc1ccc(O)cc1)NC(=O)[C@@H](Cc1c[nH]c2ccccc12)NC(=O)[C@@H](CCCNC(=N)N)NC(=O)[C@H](N)Cc1c[nH]c2ccccc12)C(=O)N[C@H](CCCNC(=N)N)C(N)=O)NC(=O)[C@@H](Cc1ccc(O)cc1)NC(=O)[C@@H](Cc1c[nH]c2ccccc12)NC(=O)[C@@H](CCCNC(=N)N)NC(=O)[C@H](N)Cc1c[nH]c2ccccc12)C(N)=O` [wrwycr, Trp-Arg-Trp-Tyr-Cys-Arg] (I: H-[dW][dR][dW][dY][dC][dR]-NH2 / II: H-[dW][dR][dW][dY][dC][dR]-NH2; disulfide I:5-II:5; N-terminus assumed), the IC50 (PC3 cells [1]) is reported as 100 µM, the IC50 (LnCAP cells) is reported as 100 to 150 µM and the “PC3 population %Live” value (PC3 cells [2]; 100 µM wrwycr, calcein AM) is reported as 64.9±2.5%. The “PC3 population % Dead” value (PC3 cells [2]; 100 µM wrwycr, propidium iodide permeable) was 33.4±2.0%, the “PC3 population % Dead” value (PC3 cells [2]; 150 µM wrwycr) was 33.8±0.6% and the “PC3 population %Live” value (PC3 cells [2]; 150 µM wrwycr) was 64.4±0.9%. The “PC3 population % Dead” value (PC3 cells [2]; 200 µM wrwycr) was 40.6±4.8%, the “PC3 population %Live” value (PC3 cells [2]; 200 µM wrwycr) was 58% and 57.7±4.7% and the “Hela population % Dead” value (HeLa cells; 100 µM wrwycr) was 5.4±2.0%. The “Hela population %Live” value (HeLa cells; 100 µM wrwycr) was 90.4±2.3%, the “Hela population % Dead” value (HeLa cells; 150 µM wrwycr) was 7.8±2.7% and the “Hela population %Live” value (HeLa cells; 150 µM wrwycr) was 86.3±2.5%. For the same molecule, the “Hela population % Dead” value (HeLa cells; 200 µM wrwycr) was 12.7±6.0%, the “Hela population %Live” value (HeLa cells; 200 µM wrwycr) was 79% and 79.3±4.5% and the γH2AX positive cells (γH2AX in PC3 cells; after 36–48 h) was 20–35%. For the same molecule, the γH2AX positive cells (γH2AX in PC3 cells; between 12–24 h) was 2–5%, the “percentage of the S phase cellular population” value (PC3 cells [3]) was 50% and the “cells with activated Chk2” value (Chk2 in PC3 cells) was “About 5%”. It also gave a pGRP78/pSV40 ([4]; 100 µM, ER stress as fold increase GRP78 promoter over SV40 promoter) of 0.84±0.1, a pGRP78/pSV40 ([4]; 150 µM) of 1.02±0.44 and a pGRP78/pSV40 ([4]; 200 µM) of 0.87±0.06. For the same molecule, the “induction of expression of the GRP78 promoter” value ([4]; 100–200 µM) was “did not induce expression of the GRP78 promoter”, the “uptake in U2OS cell lines relative to non-tumor derived IMR 90 cells” value [5] was 3 × and the “higher affinity for HJs than replication forks” value [6] was 2–5 fold.

— PMC3828334, “Tumor Cell Death Mediated by Peptides That Recognize Branched Intermediates of DNA Replication and Repair” (PLoS ONE, 2013)
